Results published in article PMC10687071 (The Journal of Biological Chemistry, 2023).
Several values for one entry are separate records, joined by “and”; a condition that tells them apart may be missing. Equal entries are not always repeated.

Legend:
[1] = can reach up; cited from earlier work
[2] = target: T1, F130G mutant EAG1 channels (Mus musculus, UniProt Q60603, F130G); experiment: TEVC recording, imipramine inhibition, F130G mutant; format: cell-based; settings: F130G mutant EAG1 channel, +50 mV
T1 construct: expressed in transfected cells; host or cells: Xenopus laevis oocytes injected with cRNA
T1 sequence (Q60603 1-989 F130G): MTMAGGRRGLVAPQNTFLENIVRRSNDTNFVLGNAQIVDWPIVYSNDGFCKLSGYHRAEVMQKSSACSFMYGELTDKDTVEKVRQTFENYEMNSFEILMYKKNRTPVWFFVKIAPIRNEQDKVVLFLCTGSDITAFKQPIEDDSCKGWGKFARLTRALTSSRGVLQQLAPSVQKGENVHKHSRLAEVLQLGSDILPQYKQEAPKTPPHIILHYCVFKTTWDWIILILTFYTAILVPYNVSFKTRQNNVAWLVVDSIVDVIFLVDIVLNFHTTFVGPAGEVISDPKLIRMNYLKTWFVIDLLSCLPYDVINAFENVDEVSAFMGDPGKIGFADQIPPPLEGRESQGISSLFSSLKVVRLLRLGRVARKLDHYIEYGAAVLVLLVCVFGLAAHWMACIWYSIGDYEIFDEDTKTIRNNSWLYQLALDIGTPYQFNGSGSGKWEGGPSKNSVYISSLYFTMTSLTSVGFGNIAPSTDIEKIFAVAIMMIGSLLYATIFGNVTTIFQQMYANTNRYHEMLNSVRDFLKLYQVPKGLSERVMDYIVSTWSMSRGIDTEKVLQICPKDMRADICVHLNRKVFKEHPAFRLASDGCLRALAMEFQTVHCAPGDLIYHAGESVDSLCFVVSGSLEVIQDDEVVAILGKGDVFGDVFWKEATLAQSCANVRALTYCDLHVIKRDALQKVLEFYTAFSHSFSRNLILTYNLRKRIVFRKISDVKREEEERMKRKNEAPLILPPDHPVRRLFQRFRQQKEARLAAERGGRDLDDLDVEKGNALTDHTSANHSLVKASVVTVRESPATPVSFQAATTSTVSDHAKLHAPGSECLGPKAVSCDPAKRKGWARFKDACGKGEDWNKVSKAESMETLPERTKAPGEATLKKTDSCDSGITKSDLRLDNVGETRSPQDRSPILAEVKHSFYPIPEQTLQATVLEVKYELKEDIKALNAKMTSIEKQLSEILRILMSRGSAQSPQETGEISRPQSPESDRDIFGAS
Source text: (§1) The cDNA encoding wild-type (WT) mouse EAG1 channels in pGH19 vector was kindly provided by G. Robertson (University of Wisconsin-Madison, Madison, WI). The mutant ΔPAS EAG1 channel in pGH19 with the deletion of the PAS domain residues 2 to 130 was generated by Bio Basic Inc and verified by DNA sequencing (Genewiz). Mutant EAG1 channels with single amino acid substitutions were generated by Genewiz and verified by DNA sequencing. cRNA was transcribed using the T7 mMessage mMachine kit (Thermo Fisher Scientific). Defolliculated Xenopus laevis oocytes were purchased from Ecocyte Bioscience or Xenopus1 and injected with the cRNA using a Nanoinject II oocyte injector (Drummond).
(§2) For EAG1 current recordings, oocytes were placed into a handmade chamber containing a bath solution for the current recording. The currents were recorded using a TEVC technique with OC-725C amplifier (Warner Instruments) and pClamp11 software (Molecular Devices). The signals were digitized using Digidata 1550 (Molecular Devices). Patch pipettes were pulled from borosilicate glass and had resistances of 0.7 to 1.5 MΩ. The recording (bath) solution contained 96 mM NaCl, 4 mM KCl, 0.1 mM CaCl2, 1.8 mM MgCl2, and 5 mM HEPES, pH 7.5. The pipette solution contained 3 M KCl. […]

[3] = target: T2, ΔPAS mutant EAG1 channels (deletion of PAS domain residues 2 to 130) (Mus musculus, UniProt Q60603); experiment: TEVC recording, imipramine inhibition, ΔPAS mutant; format: cell-based; settings: ΔPAS mutant EAG1 channel, +50 mV
T2 construct: expressed in transfected cells; host or cells: Xenopus laevis oocytes injected with cRNA
T2 sequence (Q60603 with tags, fused parts or gaps): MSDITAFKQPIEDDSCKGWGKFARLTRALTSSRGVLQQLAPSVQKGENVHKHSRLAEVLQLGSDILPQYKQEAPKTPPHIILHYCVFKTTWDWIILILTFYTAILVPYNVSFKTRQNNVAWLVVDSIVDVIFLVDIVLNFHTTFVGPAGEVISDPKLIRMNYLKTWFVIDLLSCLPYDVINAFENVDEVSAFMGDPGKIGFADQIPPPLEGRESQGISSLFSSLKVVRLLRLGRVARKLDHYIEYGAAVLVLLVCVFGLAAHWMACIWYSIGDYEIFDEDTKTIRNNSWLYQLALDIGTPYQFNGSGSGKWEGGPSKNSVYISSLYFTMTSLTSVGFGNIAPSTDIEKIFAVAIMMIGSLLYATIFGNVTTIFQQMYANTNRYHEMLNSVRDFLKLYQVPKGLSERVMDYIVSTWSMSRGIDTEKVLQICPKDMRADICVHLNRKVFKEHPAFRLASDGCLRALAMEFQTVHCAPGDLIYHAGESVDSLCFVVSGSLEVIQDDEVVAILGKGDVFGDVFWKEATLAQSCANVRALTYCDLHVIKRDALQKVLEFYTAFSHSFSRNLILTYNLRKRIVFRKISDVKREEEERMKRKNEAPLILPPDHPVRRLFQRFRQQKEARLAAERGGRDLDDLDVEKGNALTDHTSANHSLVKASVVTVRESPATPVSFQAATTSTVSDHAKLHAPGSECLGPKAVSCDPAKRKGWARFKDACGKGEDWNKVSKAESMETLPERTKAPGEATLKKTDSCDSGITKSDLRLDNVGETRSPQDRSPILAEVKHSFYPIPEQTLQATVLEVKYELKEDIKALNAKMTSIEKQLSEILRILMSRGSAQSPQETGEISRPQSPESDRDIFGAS
Source text: as §1, §2

EAG1 channels = settings: HEK293, whole-cell configuration; read-out: IC50 for EAG1 currents recorded from HEK293 in the whole-cell configuration; cited from earlier work

- IC50 [2]: 52.8 ± 5 µM
- IC50 [3]: 109 ± 12.6 µM
SMILES: CN(C)CCCN1c2ccccc2CCc2ccccc21 [imipramine]
- Plasma levels of imipramine observed in patients [1]: ≤ 300 ng/ml and ≤ 1 μM
- IC50 (EAG1 channels): ~2 µM
